Laboratory results published in ChEMBL document CHEMBL1201862, “PubChem BioAssay data set” (2004).
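A five-concentration, 48-hour dose response in 96-well plates underlies each endpoint, interpolated linearly between surrounding concentrations. GI50 is the concentration that inhibits growth by half.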 The source made the active and inactive calls. Rule as the data show it: active = GI50 up to about 1.1 µM and inactive = higher.

How the values were obtained:
Experiment in all cases: DTP human tumour cell line panel, 48 h
[1] = system: A549
[2] = system: COLO 205
[3] = system: HCT-116
[4] = system: HL-60
[5] = system: HOP-92
[6] = system: K562
[7] = system: KM12
[8] = system: LOX IMVI
[9] = system: MCF7
[10] = system: Malme-3M
[11] = system: OVCAR-5
[12] = system: SK-MEL-28
[13] = system: SK-MEL-2
[14] = system: SK-MEL-5
[15] = system: SK-OV-3
[16] = system: UACC-257
[17] = system: UACC-62
[18] = system: UO-31
[19] = system: ACHN
[20] = system: NCI-H460

Row | SMILES | GI50 [1] | GI50 [2] | GI50 [3] | GI50 [4] | GI50 [5] | GI50 [6] | GI50 [7] | GI50 [8] | GI50 [9] | GI50 [10] | GI50 [11] | GI50 [12] | GI50 [13] | GI50 [14] | GI50 [15] | GI50 [16] | GI50 [17] | GI50 [18] | GI50 [19] | GI50 [20]
1 | O=C1c2ccccc2-c2c1c1ccccc1c(=O)n2Cc1ccco1 | > 100 µM (inactive) | > 100 µM (inactive) | > 100 µM (inactive) | > 100 µM (inactive) | > 100 µM (inactive) | > 100 µM (inactive) | > 100 µM (inactive) | > 100 µM (inactive) | > 100 µM (inactive) | > 100 µM (inactive) | > 100 µM (inactive) | > 100 µM (inactive) | > 100 µM (inactive) | > 100 µM (inactive) | > 100 µM (inactive) | > 100 µM (inactive) | > 100 µM (inactive) | > 100 µM (inactive) |  | 
2 | COc1cc(S(=O)(=O)Nc2nc(-c3ccc(N4C(=O)C(CC(=O)O)SC4c4ccccc4O)cc3)cs2)ccc1Cl (stereo unspecified) | 32 µM (inactive) | 83.4 µM (inactive) | 46.3 µM (inactive) | 15.3 µM (inactive) | 31 µM (inactive) | 38.2 µM (inactive) | 78.7 µM (inactive) | > 100 µM (inactive) | 42.5 µM (inactive) | > 100 µM (inactive) | > 100 µM (inactive) | > 100 µM (inactive) | > 100 µM (inactive) | 29 µM (inactive) | 62.4 µM (inactive) | 88.7 µM (inactive) | 72.9 µM (inactive) | > 100 µM (inactive) | > 100 µM (inactive) | 82.4 µM (inactive)
3 | CCOC(=O)C(NC(=O)c1cccc(Cl)c1)(Nc1ccc(S(=O)(=O)Nc2cc(C)nc(C)n2)cc1)C(F)(F)F (stereo unspecified) | > 100 µM (inactive) | > 100 µM (inactive) | > 100 µM (inactive) | > 100 µM (inactive) | 80.5 µM (inactive) |  | > 100 µM (inactive) | > 100 µM (inactive) | > 100 µM (inactive) | > 100 µM (inactive) | > 100 µM (inactive) | > 100 µM (inactive) | > 100 µM (inactive) | > 100 µM (inactive) | > 100 µM (inactive) | > 100 µM (inactive) |  | > 100 µM (inactive) | > 100 µM (inactive) | > 100 µM (inactive)
4 | CC(=O)Nc1nnc(S(=O)(=O)NC(=S)Nc2ccc(Cl)cc2)s1 | > 100 µM (inactive) | > 100 µM (inactive) | > 100 µM (inactive) | > 100 µM (inactive) | > 100 µM (inactive) | > 100 µM (inactive) | > 100 µM (inactive) | > 100 µM (inactive) | > 100 µM (inactive) | > 100 µM (inactive) | > 100 µM (inactive) | > 100 µM (inactive) | > 100 µM (inactive) | > 100 µM (inactive) | > 100 µM (inactive) | > 100 µM (inactive) | > 100 µM (inactive) | > 100 µM (inactive) | > 100 µM (inactive) | > 100 µM (inactive)
5 | c1ccc2c(c1)c(N1CCCCC1)cc1nc3c(cc(N4CCCCC4)c4ccccc43)nc12 | > 100 µM (inactive) | > 100 µM (inactive) | > 100 µM (inactive) | > 100 µM (inactive) | > 100 µM (inactive) | > 100 µM (inactive) | > 100 µM (inactive) | > 100 µM (inactive) | > 100 µM (inactive) | > 100 µM (inactive) | > 100 µM (inactive) | > 100 µM (inactive) | > 100 µM (inactive) | > 100 µM (inactive) | > 100 µM (inactive) | > 100 µM (inactive) | > 100 µM (inactive) | > 100 µM (inactive) | > 100 µM (inactive) | > 100 µM (inactive)
6 | CNc1ccc(C(=O)CC(O)CCC(C)C2OC(=O)CC(O)CC(=O)CC(O)CC(O)CC(O)CC(O)CC3(O)CC(O)C(C(=O)NCCN(C)C)C(CC(OC4OC(C)C(O)C(NC(=O)CN5CCN(C)CC5)C4O)\C=C/C=C\C=C/C=C/C=C/C=C\C=C/C2C)O3)cc1 (stereo unspecified) | 2.88 µM (inactive) | 3.86 µM (inactive) |  | 7.29 µM (inactive) | > 100 µM (inactive) | 3.2 µM (inactive) | 2.08 µM (inactive) | 2.92 µM (inactive) | 2.36 µM (inactive) | 2.28 µM (inactive) | 57.4 µM (inactive) | 9.27 µM (inactive) | 6.22 µM (inactive) | 2.81 µM (inactive) | > 100 µM (inactive) | 10.7 µM (inactive) | 46.2 µM (inactive) | 4.34 µM (inactive) | 2.84 µM (inactive) | 4.73 µM (inactive)
7 | Cc1ccc([N+](=O)[O-])cc1S(=O)(=O)Nc1ccc(C2=NN(C(=O)c3ccccc3)C(c3ccccc3)C2)cc1 (stereo unspecified) | 18.7 µM (inactive) | 16.9 µM (inactive) | 18.1 µM (inactive) | 21.5 µM (inactive) | 14.5 µM (inactive) | 18 µM (inactive) | 26.2 µM (inactive) | 30.5 µM (inactive) | 17.1 µM (inactive) | 18.2 µM (inactive) | 41.3 µM (inactive) | 41.6 µM (inactive) | 14.4 µM (inactive) | 12.9 µM (inactive) | 16 µM (inactive) | 20.6 µM (inactive) |  | 22.4 µM (inactive) | 19 µM (inactive) | 
8 | COc1ccc(CNc2nc(NCc3ccc(OC)cc3)nc(NC3CCCCC3)n2)cc1 | 2 µM (inactive) | 1.94 µM (inactive) | 3.12 µM (inactive) | 4.34 µM (inactive) | 24 µM (inactive) | 5.35 µM (inactive) | 1.5 µM (inactive) | 3.13 µM (inactive) | 0.112 µM (active) | 0.225 µM (active) | 4.99 µM (inactive) | > 100 µM (inactive) | 2.81 µM (inactive) | 3.56 µM (inactive) | 3.87 µM (inactive) | 53.8 µM (inactive) | 2 µM (inactive) | 4.32 µM (inactive) | 5.11 µM (inactive) | 2.7 µM (inactive)
9 | CC(=O)[C@@]1(O)CC[C@H]2[C@@H]3C[C@H](C)C4=CC(=O)C=C[C@]4(C)[C@@]3(F)[C@@H](O)C[C@@]21C [FLUOROMETHOLONE] | > 100 µM (inactive) | > 100 µM (inactive) | > 100 µM (inactive) | > 100 µM (inactive) | > 100 µM (inactive) | > 100 µM (inactive) | > 100 µM (inactive) | > 100 µM (inactive) | > 100 µM (inactive) | > 100 µM (inactive) | > 38.5 µM (inactive) | > 100 µM (inactive) | > 100 µM (inactive) | > 100 µM (inactive) | > 100 µM (inactive) | > 100 µM (inactive) | > 100 µM (inactive) | > 100 µM (inactive) | > 100 µM (inactive) | > 100 µM (inactive)
10 | CN1N=C(c2ccncc2)OC1c1ccc(Cl)c(Cl)c1 (stereo unspecified) | > 100 µM (inactive) | > 100 µM (inactive) | > 100 µM (inactive) | 69.8 µM (inactive) | > 100 µM (inactive) | 61.8 µM (inactive) | > 100 µM (inactive) | > 100 µM (inactive) | > 100 µM (inactive) | > 100 µM (inactive) | > 100 µM (inactive) | > 100 µM (inactive) | > 100 µM (inactive) | > 100 µM (inactive) | > 100 µM (inactive) | > 100 µM (inactive) | > 100 µM (inactive) | > 100 µM (inactive) | > 100 µM (inactive) | > 100 µM (inactive)
11 | CC(C)(C)C(=O)O[C@H]1C=C[C@@H](O)[C@@H]2[C@H]1[C@@H]1C=C[C@H]2C1 | 30 µM (inactive) | 6.03 µM (inactive) | 29.6 µM (inactive) | 4.15 µM (inactive) | 22.2 µM (inactive) | 31.9 µM (inactive) | 2.63 µM (inactive) | 21.4 µM (inactive) | 7.18 µM (inactive) | > 10 µM (inactive) | 1.96 µM (inactive) | 18.5 µM (inactive) | 13 µM (inactive) |  | 25.2 µM (inactive) | 6.52 µM (inactive) | 9.79 µM (inactive) | 47.9 µM (inactive) | 45.4 µM (inactive) | 53.8 µM (inactive)
12 | C=C1C(=O)O[C@@H]2/C=C(\C)CC/C=C(\C)CC[C@@]12O | 11.6 µM (inactive) | 1.84 µM (inactive) | 2.42 µM (inactive) | 0.771 µM (active) | 1.78 µM (inactive) | 2.42 µM (inactive) | 8.95 µM (inactive) | 1.9 µM (inactive) | 2.17 µM (inactive) | 1.53 µM (inactive) | 11.4 µM (inactive) | 3.99 µM (inactive) | 9.38 µM (inactive) | 4.59 µM (inactive) | 15.6 µM (inactive) | 4.86 µM (inactive) | 9.35 µM (inactive) | 1.48 µM (inactive) | 1.59 µM (inactive) | 9.55 µM (inactive)
13 | O=C(O)c1cccc(OCCO)c1 | > 100 µM (inactive) | > 100 µM (inactive) | > 100 µM (inactive) | > 100 µM (inactive) | > 100 µM (inactive) | > 100 µM (inactive) | > 100 µM (inactive) | > 100 µM (inactive) | > 100 µM (inactive) | > 100 µM (inactive) | > 100 µM (inactive) | > 100 µM (inactive) | > 100 µM (inactive) | > 100 µM (inactive) | > 100 µM (inactive) | > 100 µM (inactive) | > 100 µM (inactive) | > 100 µM (inactive) | > 100 µM (inactive) | > 100 µM (inactive)
14 | [N-]=[N+]=CC(=O)CCC(N)C(=O)O (stereo unspecified) | 1.01 µM (active) | 1.15 µM (inactive) |  | 1.72 µM (inactive) | 13.8 µM (inactive) | 1.32 µM (inactive) | 0.541 µM (active) | 0.689 µM (active) | 0.474 µM (active) | 6.38 µM (inactive) | 4.86 µM (inactive) | 2.8 µM (inactive) | 53.7 µM (inactive) | 1.22 µM (inactive) | 1.35 µM (inactive) | 11 µM (inactive) | 2.88 µM (inactive) | 5.12 µM (inactive) | 1.06 µM (active) | 1.38 µM (inactive)
